Test results reported in patent US20240018120A1, “MAGL INHIBITORS” (H. LUNDBECK A/S, priority 2020, published 2024).

Key:
[1] = biological target: T1, MAGL (Homo sapiens, UniProt Q99685); experiment: In vitro competitive activity-based protein profiling, PC3 human cell membrane proteomes; format: biochemical; design: endogenous in cells; host or cells: PC3 human cells (membrane proteome); conditions: human PC3 membrane proteome; for inhibition at 1 µM: read-out: MAGL % inh. 1 μM (human PC3)
T1 sequence (Q99685 1-303): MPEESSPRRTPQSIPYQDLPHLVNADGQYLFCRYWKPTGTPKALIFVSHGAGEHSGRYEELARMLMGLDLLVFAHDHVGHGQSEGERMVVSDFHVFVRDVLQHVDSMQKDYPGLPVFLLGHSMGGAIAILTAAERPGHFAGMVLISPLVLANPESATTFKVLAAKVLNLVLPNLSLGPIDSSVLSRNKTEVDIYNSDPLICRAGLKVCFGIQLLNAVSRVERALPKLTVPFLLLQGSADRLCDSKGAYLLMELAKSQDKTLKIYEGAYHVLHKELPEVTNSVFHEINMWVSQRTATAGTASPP
Outline: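 Competitive ABPP in PC3 membrane proteome (2.0 mg/mL protein): inhibitors preincubated 30 min at 37° C, then JW912-Bodipy probe added for 30 min at room temperature. MAGL band fluorescence after SDS-PAGE normalised to DMSO; IC50 from 4-parameter sigmoidal fit.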

[2] = system: cryopreserved human hepatocytes; experiment: In vitro human hepatocyte stability; format: in vitro ADME; conditions: human hepatocytes 0.5×10^6 cells/mL, 1 μM
Experimental: The metabolic stability of test articles (1 μM) in commercially sourced, pooled donor, cryopreserved human hepatocytes (0.5×10^6 cells/mL) was determined in duplicate. The CLint reactions (250 μL) were initiated by addition of test compound. Aliquots (25 μL) were taken at 0, 15, 30, 45, 60, 90, 120 and 240 minutes and then protein crashed with ice-cold acetonitrile containing internal standard then centrifuged (3220 g for 25 minutes). Supernatant was used for LC-MS/MS analysis. The in vitro half-life (in vitro t½) was determined from the slope value: in vitro t1/2=−0.693/k. Conversion of the in vitro t1/2 (in min) into the scale-up unbound intrinsic clearance (Scaled-up unbound CLint, in mL/min/kg) was done using the following equation (mean of duplicate determinations), with data shown in Table 5: Scaled-up unbound CLint=kV/N×scaling factor. V=incubation volume (0.25 mL); N=number of hepatocytes per well ([…]). Scaling factors for in vivo intrinsic clearance prediction are listed below: […]

[3] = biological target: T1, MAGL; experiment: In vitro competitive substrate hydrolysis enzyme activity assay (pNPA), HEK293 cell lysates; format: biochemical; design: expressed in transfected cells; host or cells: HEK293; conditions: HEK293 lysate
Experimental: HEK293 cell lysates expressing recombinant human MAGL enzyme and 4-nitrophenyl acetate (pNPA) substrate were diluted separately in 50 mM HEPES (pH 7.0) containing 200 mM KCl and 1 mM EDTA. Lysates (50 μL, ˜1.2 μg total protein) were preincubated with varying concentrations of inhibitors at 25° C. After 30 min, 2×pNPA substrate (50 μL, 2.5 mM) was added and the rate of substrate turnover was monitored by measuring the increase in absorbance at wavelength 405 nm for 20 minutes at 25° C. using a Biotek Neo2 plate reader. The mean velocity was converted to percent enzyme activity following background subtraction and normalization to DMSO controls. IC50 values were determined by fitting percent enzyme activities to a non-linear regression, 4-parameter, sigmoidal dose response function in Prism GraphPad.

For CP(C)(=O)c1ccc(NC(=O)C2CC23CCN(C(=O)OC(C(F)(F)F)C(F)(F)F)CC3)cn1 (single isomer, unassigned) [Example 20, 1,1,1,3,3,3-Hexafluoropropan-2-yl (R or S)-1-((6-(dimethylphosphoryl)pyridin-3-yl)carbamoyl)-6-azaspiro[2.5]octane-6-carboxylate], the IC50 [1] was 0.029 µM and the “Scaled-up unbound CLint” value [2] was 0.85 mL/min/kg.
In the case of O=C(Nc1ccncc1)C1CC12CCN(C(=O)OC(C(F)(F)F)C(F)(F)F)CC2 (single isomer, unassigned) [Example 24, 1,1,1,3,3,3-Hexafluoropropan-2-yl (R or S)-1-(pyridin-4-ylcarbamoyl)-6-azaspiro[2.5]octane-6-carboxylate], the IC50 [1] is reported as 0.0024 µM and the “Scaled-up unbound CLint” value [2] is reported as 11.9 mL/min/kg.
O=C(Nc1cncc(Cl)c1)C1CC12CCN(C(=O)OC(C(F)(F)F)C(F)(F)F)CC2 (single isomer, unassigned) [Example 66, 1,1,1,3,3,3-hexafluoropropan-2-yl (R or S)-1-((5-chloropyridin-3-yl)carbamoyl)-6-azaspiro[2.5]octane-6-carboxylate] was tested, and the IC50 [3] was 0.00102 µM, the inhibition at 1 µM [1] was 100% and the IC50 [1] was 0.0042 µM.
For O=C(Nc1cccc(C(F)(F)F)n1)C1CC12CCN(C(=O)OC(C(F)(F)F)C(F)(F)F)CC2 (single isomer, unassigned) [Example 72, 1,1,1,3,3,3-hexafluoropropan-2-yl (R or S)-1-((6-(trifluoromethyl)pyridin-2-yl)carbamoyl)-6-azaspiro[2.5]octane-6-carboxylate], the IC50 [3] was 0.00617 µM and the inhibition at 1 µM [1] was 100%.
O=C(NCc1cccc(C(F)(F)F)n1)C1CC12CCN(C(=O)OC(C(F)(F)F)C(F)(F)F)CC2 (single isomer, unassigned) [Example 75, 1,1,1,3,3,3-hexafluoropropan-2-yl (R or S)-1-(((6-(trifluoromethyl)pyridin-2-yl)methyl)carbamoyl)-6-azaspiro[2.5]octane-6-carboxylate] showed an IC50 [3] of 0.00911 µM and an inhibition at 1 µM [1] of 100%.
O=C(NCc1cccc(C(F)(F)F)n1)C1CC12CCN(C(=O)OC(C(F)(F)F)C(F)(F)F)CC2 (single isomer, unassigned) [Example 76, 1,1,1,3,3,3-hexafluoropropan-2-yl (R or S)-1-(((6-(trifluoromethyl)pyridin-2-yl)methyl)carbamoyl)-6-azaspiro[2.5]octane-6-carboxylate] gave an IC50 [3] of 0.00241 µM and an IC50 [1] of 0.0035 µM.
O=C(Nc1ccc(C(F)(F)F)nc1)C1CC12CCN(C(=O)OC(C(F)(F)F)C(F)(F)F)CC2 (single isomer, unassigned) [Example 78, 1,1,1,3,3,3-hexafluoropropan-2-yl (R or S)-1-((6-(trifluoromethyl)pyridin-3-yl)carbamoyl)-6-azaspiro[2.5]octane-6-carboxylate] showed an IC50 [3] of 0.00299 µM and an IC50 [1] of 0.008 µM.
Cc1ccc(NC(=O)C2CC23CCN(C(=O)OC(C(F)(F)F)C(F)(F)F)CC3)cn1 (single isomer, unassigned) [Example 81, 1,1,1,3,3,3-hexafluoropropan-2-yl (R or S)-1-((6-methylpyridin-3-yl)carbamoyl)-6-azaspiro[2.5]octane-6-carboxylate] showed an IC50 [3] of 0.000864 µM, an inhibition at 1 µM [1] of 100% and an IC50 [1] of 0.00087 µM.
O=C(Nc1cccnc1C(F)(F)F)C1CC12CCN(C(=O)OC(C(F)(F)F)C(F)(F)F)CC2 (single isomer, unassigned) [Example 84, 1,1,1,3,3,3-hexafluoropropan-2-yl (R or S)-1-((2-(trifluoromethyl)pyridin-3-yl)carbamoyl)-6-azaspiro[2.5]octane-6-carboxylate] showed an IC50 [3] of 0.0101 µM, an inhibition at 1 µM [1] of 100% and an IC50 [1] of 0.0089 µM.
Work on O=C(Nc1cccnc1C(F)(F)F)C1CC12CCN(C(=O)OC(C(F)(F)F)C(F)(F)F)CC2 (single isomer, unassigned) [Example 85, 1,1,1,3,3,3-hexafluoropropan-2-yl (R or S)-1-((2-(trifluoromethyl)pyridin-3-yl)carbamoyl)-6-azaspiro[2.5]octane-6-carboxylate] yielded an IC50 [3] of 0.167 µM and an IC50 [1] of 0.099 µM.
O=C(NCc1cccnc1)C1CC12CCN(C(=O)OC(C(F)(F)F)C(F)(F)F)CC2 (single isomer, unassigned) [Example 87, 1,1,1,3,3,3-hexafluoropropan-2-yl (R or S)-1-((pyridin-3-ylmethyl)carbamoyl)-6-azaspiro[2.5]octane-6-carboxylate] was tested, and the IC50 [3] was 0.463 µM, the inhibition at 1 µM [1] was 100% and the IC50 [1] was 0.2 µM.
For O=C(NCc1cccnc1)C1CC12CCN(C(=O)OC(C(F)(F)F)C(F)(F)F)CC2 (single isomer, unassigned) [Example 88, 1,1,1,3,3,3-hexafluoropropan-2-yl (R or S)-1-((pyridin-3-ylmethyl)carbamoyl)-6-azaspiro[2.5]octane-6-carboxylate], the IC50 [3] was 0.0718 µM and the IC50 [1] was 0.0325 µM.
For O=C(NC(=O)C1CC12CCN(C(=O)OC(C(F)(F)F)C(F)(F)F)CC2)C1CCCCC1 (single isomer, unassigned) [Example 90, 1,1,1,3,3,3-hexafluoropropan-2-yl (R or S)-1-((cyclohexanecarbonyl)carbamoyl)-6-azaspiro[2.5]octane-6-carboxylate], the IC50 [3] was 0.00579 µM, the inhibition at 1 µM [1] was 100% and the IC50 [1] was 0.0047 µM.
O=C(NC(=O)C1CC12CCN(C(=O)OC(C(F)(F)F)C(F)(F)F)CC2)C1CCCCC1 (single isomer, unassigned) [Example 91, 1,1,1,3,3,3-hexafluoropropan-2-yl (R or S)-1-((cyclohexanecarbonyl)carbamoyl)-6-azaspiro[2.5]octane-6-carboxylate] gave an IC50 [3] of 0.00599 µM and an IC50 [1] of 0.0037 µM.
Molecule O=C(NC(=O)C1CC12CCN(C(=O)OC(C(F)(F)F)C(F)(F)F)CC2)c1ccccc1 (single isomer, unassigned) [Example 93, 1,1,1,3,3,3-hexafluoropropan-2-yl (R or S)-1-(benzoylcarbamoyl)-6-azaspiro[2.5]octane-6-carboxylate] has an IC50 [3] of 0.00284 µM and an inhibition at 1 µM [1] of 100%.
O=C(NC(=O)C1CC12CCN(C(=O)OC(C(F)(F)F)C(F)(F)F)CC2)c1ccccc1 (single isomer, unassigned) [Example 94, 1,1,1,3,3,3-hexafluoropropan-2-yl (R or S)-1-(benzoylcarbamoyl)-6-azaspiro[2.5]octane-6-carboxylate] showed an IC50 [3] of 0.00323 µM and an IC50 [1] of 0.0051 µM.
O=C(Nc1cncnc1)C1CC12CCN(C(=O)OC(C(F)(F)F)C(F)(F)F)CC2 (single isomer, unassigned) [Example 97, 1,1,1,3,3,3-hexafluoropropan-2-yl (R or S)-1-(pyrimidin-5-ylcarbamoyl)-6-azaspiro[2.5]octane-6-carboxylate] was tested, and the IC50 [3] was 1.38 µM and the IC50 [1] was 0.2 µM.
Work on O=C(Nc1cnc(C(F)(F)F)nc1)C1CC12CCN(C(=O)OC(C(F)(F)F)C(F)(F)F)CC2 (single isomer, unassigned) [Example 99, 1,1,1,3,3,3-hexafluoropropan-2-yl (R or S)-1-((2-(trifluoromethyl)pyrimidin-5-yl)carbamoyl)-6-azaspiro[2.5]octane-6-carboxylate] yielded an IC50 [3] of 0.00552 µM and an IC50 [1] of 0.0097 µM.
With O=C(Nc1cncs1)C1CC12CCN(C(=O)OC(C(F)(F)F)C(F)(F)F)CC2 (single isomer, unassigned) [Example 129, 1,1,1,3,3,3-hexafluoropropan-2-yl (R or S)-1-(thiazol-5-ylcarbamoyl)-6-azaspiro[2.5]octane-6-carboxylate] the “Scaled-up unbound CLint” value [2] was 53.56 mL/min/kg.
O=C(Nc1cccnn1)[C@@H]1CC12CCN(C(=O)OC(C(F)(F)F)C(F)(F)F)CC2 [Example 5, 1,1,1,3,3,3-Hexafluoropropan-2-yl (R)-1-(pyridazin-3-ylcarbamoyl)-6-azaspiro[2.5]octane-6-carboxylate] was tested, and the IC50 [3] was 0.553 µM, the inhibition at 1 µM [1] was 100% and the IC50 [1] was 0.18 µM.
